Laboratory results reported in US12390451B2, “Small molecule inhibitor of the JAK family of kinases” (Janssen Pharmaceutica NV, priority 2021, dated 2025).
Where two headings read alike, the source gives them in different places.

Assay: Tissue distribution in rats after oral administration
Format: in vivo, male Sprague-Dawley rats
Conditions: PO 25 mg/kg; for concentration at 0.5 h / concentration at 1 h / concentration at 2 h / concentration at 3 h / concentration at 5 h / concentration at 7 h / concentration at 24 h: male, Sprague-Dawley, rat
Method: Preliminary tissue distribution studies were conducted in male Sprague-Dawley rats (N=3/time point) at 0.5, 1, 2, 3, 5, 7, and 24 hours following oral administration of compound of Formula I at a dose of 25 mg/kg. The following tissues were harvested for compound concentration analysis: liver, kidney, brain, muscle, epididymis fat, duodenum, jejunum, ileum, colon (both lumen content and tissue), and plasma. The results of this study indicated low systemic exposure and high local concentrations (intestinal tract).

[1] = 1 h, BLOQ 0.5 ng/mL of tissue homogenate
[2] = 2 h, BLOQ 0.5 ng/mL of tissue homogenate
[3] = 3 h, BLOQ 0.5 ng/mL of tissue homogenate
[4] = 5 h, BLOQ 0.5 ng/mL of tissue homogenate
[5] = 24 h, BLOQ 0.5 ng/mL of tissue homogenate

CC(C)(O)CNC(=O)Cc1nc2cnc3[nH]ccc3c2n1[C@H]1CC[C@H](CC#N)CC1 [Compound of Formula I, 2-(1-((1r,4r)-4-(Cyanomethyl)cyclohexyl)-1,6-dihydroimidazo[4,5-d]pyrrolo[2,3-b]pyridin-2-yl)-N-(2-hydroxy-2-methylpropyl)acetamide]
Brain concentration [1]: BLOQ^(a) | Fat concentration [1]: BLOQ^(a) | Kidney concentration (1 h, SD NA): 42.2 ng/g | Plasma concentration (1 h, SD NA): 5.8 ng/mL | Brain concentration [2]: BLOQ^(a) | Fat concentration [2]: BLOQ^(a) | Muscle concentration [2]: BLOQ^(a) | Brain concentration [3]: BLOQ^(a) | Muscle concentration [3]: BLOQ^(a) | Ileum Content concentration (3 h, average, N = 3): 1,402,241 ng/mL | Brain concentration [4]: BLOQ^(a) | Fat concentration [4]: BLOQ^(a) | Muscle concentration [4]: BLOQ^(a) | Brain concentration (7 h, BLOQ 0.5 ng/mL of tissue homogenate): BLOQ^(a) | Plasma concentration (24 h, BLOQ 0.5 ng/mL): BLOQ^(a) | Brain concentration [5]: BLOQ^(a) | Fat concentration [5]: BLOQ^(a) | Kidney concentration [5]: BLOQ^(a) | Muscle concentration [5]: BLOQ^(a) | concentration at 0.5 h (brain, average ±SD, read-out: Brain concentration): 3.5 ± 3.1 ng/g | concentration at 0.5 h (colon lumen content, average, N = 3, read-out: Colon Content concentration): 167 ng/mL | concentration at 1 h (colon lumen content, 1 h, average, N = 3, read-out: Colon Content concentration): 135 ng/mL | concentration at 2 h (colon lumen content, 2 h, average, N = 3, read-out: Colon Content concentration): 19100 ng/mL | concentration at 3 h (colon lumen content, 3 h, average, N = 3, read-out: Colon Content concentration): 304000 ng/mL | concentration at 5 h (colon lumen content, 5 h, average, N = 3, read-out: Colon Content concentration): 830000 ng/mL | concentration at 7 h (colon lumen content, 7 h, average, N = 3, read-out: Colon Content concentration): 834000 ng/mL | concentration at 24 h (colon lumen content, 24 h, average, N = 3, read-out: Colon Content concentration): 7590 ng/mL | concentration at 0.5 h (colon tissue, average, N = 3, read-out: Colon Tissue concentration): 946 ng/g | concentration at 1 h (colon tissue, 1 h, average, N = 3, read-out: Colon Tissue concentration): 383 ng/g | concentration at 2 h (colon tissue, 2 h, average, N = 3, read-out: Colon Tissue concentration): 2190 ng/g | concentration at 3 h (colon tissue, 3 h, average, N = 3, read-out: Colon Tissue concentration): 12400 ng/g | concentration at 5 h (colon tissue, 5 h, average, N = 3, read-out: Colon Tissue concentration): 33500 ng/g | concentration at 7 h (colon tissue, 7 h, average, N = 3, read-out: Colon Tissue concentration): 36700 ng/g | concentration at 24 h (colon tissue, 24 h, average, N = 3, read-out: Colon Tissue concentration): 353 ng/g | concentration at 0.5 h (duodenum lumen content, average, N = 3, read-out: Duod. Content concentration): 329000 ng/mL | concentration at 1 h (duodenum lumen content, 1 h, average, N = 3, read-out: Duod. Content concentration): 45500 ng/mL | concentration at 2 h (duodenum lumen content, 2 h, average, N = 3, read-out: Duod. Content concentration): 20200 ng/mL | concentration at 3 h (duodenum lumen content, 3 h, average, N = 3, read-out: Duod. Content concentration): 15800 ng/mL | concentration at 5 h (duodenum lumen content, 5 h, average, N = 3, read-out: Duod. Content concentration): 4470 ng/mL | concentration at 7 h (duodenum lumen content, 7 h, average, N = 3, read-out: Duod. Content concentration): 2630 ng/mL | concentration at 24 h (duodenum lumen content, 24 h, average, N = 3, read-out: Duod. Content concentration): 60 ng/mL | concentration at 0.5 h (duodenum tissue, average, N = 3, read-out: Duod. Tissue concentration): 35200 ng/g | concentration at 1 h (duodenum tissue, 1 h, average, N = 3, read-out: Duod. Tissue concentration): 16700 ng/g | concentration at 2 h (duodenum tissue, 2 h, average, N = 3, read-out: Duod. Tissue concentration): 3170 ng/g | concentration at 3 h (duodenum tissue, 3 h, average, N = 3, read-out: Duod. Tissue concentration): 3840 ng/g | concentration at 5 h (duodenum tissue, 5 h, average, N = 3, read-out: Duod. Tissue concentration): 1100 ng/g | concentration at 7 h (duodenum tissue, 7 h, average, N = 3, read-out: Duod. Tissue concentration): 366 ng/g | concentration at 24 h (duodenum tissue, 24 h, average, N = 3, read-out: Duod. Tissue concentration): 17 ng/g | concentration at 0.5 h (ileum lumen content, average, N = 3, read-out: Ileum Content concentration): 644 ng/mL | concentration at 1 h (ileum lumen content, 1 h, average, N = 3, read-out: Ileum Content concentration): 496 ng/mL | concentration at 2 h (ileum lumen content, 2 h, average, N = 3, read-out: Ileum Content concentration): 725000 ng/mL | concentration at 5 h (ileum lumen content, 5 h, average, N = 3, read-out: Ileum Content concentration): 597000 ng/mL | concentration at 7 h (ileum lumen content, 7 h, average, N = 3, read-out: Ileum Content concentration): 133000 ng/mL | concentration at 24 h (ileum lumen content, 24 h, average, N = 3, read-out: Ileum Content concentration): 893 ng/mL
